Tests used:
Experiment in all cases: cells
Assay type in all cases: functional, cell-based
Details in all cases: Homo sapiens
KYSE-150 cell line = tested on: KYSE-150 cell line;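 note: growth inhibition of human KYSE-150 cells, read out with a cell viability assay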
Description: SANGER: Inhibition of human KYSE-150 cell growth in a cell viability assay.

RCM-1 = tested on: RCM-1;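 note: growth inhibition of the RCM-1 line, determined with a cell viability readout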
Description: SANGER: Inhibition of human RCM-1 cell growth in a cell viability assay.

SKG-IIIa = tested on: SKG-IIIa;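 note: cell growth inhibition, read out with a cell viability assay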
Description: SANGER: Inhibition of human SKG-IIIa cell growth in a cell viability assay.

NB17 = tested on: NB17;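 note: growth inhibition of NB17 cells, read out with a cell viability assay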
Description: SANGER: Inhibition of human NB17 cell growth in a cell viability assay.

SCC-9 = tested on: SCC-9;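 note: Read-out is a cell viability assay, with values giving inhibition of cell growth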
Description: SANGER: Inhibition of human SCC-9 cell growth in a cell viability assay.

HCT-15 = tested on: HCT-15;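 note: cell viability readout, IC50 reflecting suppression of HCT-15 cell growth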
Description: SANGER: Inhibition of human HCT-15 cell growth in a cell viability assay.

BT-20 = tested on: BT-20;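 note: cell viability assay measuring suppression of growth in human BT-20 cells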
Description: SANGER: Inhibition of human BT-20 cell growth in a cell viability assay.

NCI-H1651 = tested on: NCI-H1651;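 note: Read-out is a cell viability assay, with IC50 expressing inhibition of NCI-H1651 cell growth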
Description: SANGER: Inhibition of human NCI-H1651 cell growth in a cell viability assay.

CAPAN-1 = tested on: CAPAN-1;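 note: growth suppression of CAPAN-1 cells, read out by a cell viability assay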
Description: SANGER: Inhibition of human CAPAN-1 cell growth in a cell viability assay.

SW48 = tested on: SW48;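 note: growth inhibition of SW48 cells, read out with a cell viability assay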
Description: SANGER: Inhibition of human SW48 cell growth in a cell viability assay.

D-247MG = tested on: D-247MG
Description: SANGER: Inhibition of human D-247MG cell growth in a cell viability assay.

HMV-2 cell line = tested on: HMV-2 cell line;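 note: growth inhibition of HMV-II cells, read out with a cell viability assay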
Description: SANGER: Inhibition of human HMV-II cell growth in a cell viability assay.

SW13 = tested on: SW13;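 note: IC50 is inhibition of SW13 cell growth, read out with a cell viability assay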
Description: SANGER: Inhibition of human SW13 cell growth in a cell viability assay.

T98G = tested on: T98G;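 note: growth inhibition of T98G cells, read out by a cell viability assay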
Description: SANGER: Inhibition of human T98G cell growth in a cell viability assay.

KYSE-510 = tested on: KYSE-510;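 note: cell viability readout used to measure how strongly growth of the cell line is suppressed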
Description: SANGER: Inhibition of human KYSE-510 cell growth in a cell viability assay.

NCI-H1693 = tested on: NCI-H1693;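 note: growth inhibition of the human cell line, read out with a cell viability assay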
Description: SANGER: Inhibition of human NCI-H1693 cell growth in a cell viability assay.

G-361 = tested on: G-361
NCI-H2122 = tested on: NCI-H2122;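 note: growth inhibition of the cells, read out with a cell viability assay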
Description: SANGER: Inhibition of human NCI-H2122 cell growth in a cell viability assay.

A673 = tested on: A673;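 note: growth inhibition of human A673 cells, read out through a cell viability assay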
Description: SANGER: Inhibition of human A673 cell growth in a cell viability assay.

BXPC-3 = tested on: BXPC-3;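 note: growth inhibition of human BxPC-3 cells, read out by a cell viability assay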
Description: SANGER: Inhibition of human BxPC-3 cell growth in a cell viability assay.

HCC70 = tested on: HCC70;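 note: cell viability assay measuring how strongly the compound suppresses proliferation of HCC70 cells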
Description: SANGER: Inhibition of human HCC70 cell growth in a cell viability assay.

NCI-H2052 = tested on: NCI-H2052;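 note: growth inhibition of NCI-H2052 cells, read out with a cell viability assay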
Description: SANGER: Inhibition of human NCI-H2052 cell growth in a cell viability assay.

EFO-21 = tested on: EFO-21;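 note: growth inhibition of EFO-21 cells measured with a viability assay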
Description: SANGER: Inhibition of human EFO-21 cell growth in a cell viability assay.

PFSK-1 = tested on: PFSK-1;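 note: cell viability assay measuring how strongly compounds suppress growth of human PFSK-1 cells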
Description: SANGER: Inhibition of human PFSK-1 cell growth in a cell viability assay.

NUGC-3 = tested on: NUGC-3;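 note: growth inhibition of human NUGC-3 cells, read out with a cell viability assay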
Description: SANGER: Inhibition of human NUGC-3 cell growth in a cell viability assay.

WM-115 = tested on: WM-115
Description: SANGER: Inhibition of human WM-115 cell growth in a cell viability assay.

BHT-101 = tested on: BHT-101
Description: SANGER: Inhibition of human BHT-101 cell growth in a cell viability assay.

SW837 = tested on: SW837;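 note: growth inhibition of SW837 cells, determined with a cell viability assay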
Description: SANGER: Inhibition of human SW837 cell growth in a cell viability assay.

HSC-4 = tested on: HSC-4;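 note: growth inhibition of human HSC-4 cells, read out with a cell viability assay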
Description: SANGER: Inhibition of human HSC-4 cell growth in a cell viability assay.

DoTc2-4510 = tested on: DoTc2-4510
HuO-3N1 = tested on: HuO-3N1;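 note: cell viability readout used to measure how strongly compounds suppress proliferation of human HuO-3N1 cells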
Description: SANGER: Inhibition of human HuO-3N1 cell growth in a cell viability assay.

SF-295 = tested on: SF-295;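 note: growth inhibition of SF-295 cells, read out with a cell viability assay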
Description: SANGER: Inhibition of human SF295 cell growth in a cell viability assay.

NCI-H2170 = tested on: NCI-H2170;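 note: cell viability assay measuring growth inhibition of human NCI-H2170 cancer cells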
Description: SANGER: Inhibition of human NCI-H2170 cell growth in a cell viability assay.

EFO-27 = tested on: EFO-27;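 note: growth inhibition of EFO-27 cells, read out with a cell viability assay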
Description: SANGER: Inhibition of human EFO-27 cell growth in a cell viability assay.

MFE-280 = tested on: MFE-280;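 note: growth inhibition of MFE-280 cells, determined with a cell viability readout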
Description: SANGER: Inhibition of human MFE-280 cell growth in a cell viability assay.

OAW-28 = tested on: OAW-28;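 note: growth inhibition of OAW-28 cells, read out with a cell viability assay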
Description: SANGER: Inhibition of human OAW-28 cell growth in a cell viability assay.

NCI-H1703 = tested on: NCI-H1703;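 note: growth inhibition of NCI-H1703 cells, read out via a cell viability assay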
Description: SANGER: Inhibition of human NCI-H1703 cell growth in a cell viability assay.

NCI-H2452 = tested on: NCI-H2452;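 note: growth inhibition of NCI-H2452 cells, read out with a cell viability assay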
Description: SANGER: Inhibition of human NCI-H2452 cell growth in a cell viability assay.

NB7 = tested on: NB7;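 note: growth inhibition of NB7 cells, read out with a cell viability assay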
Description: SANGER: Inhibition of human NB7 cell growth in a cell viability assay.

KYSE-270 = tested on: KYSE-270;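 note: cell growth inhibition measured with a viability assay in the human KYSE-270 line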
Description: SANGER: Inhibition of human KYSE-270 cell growth in a cell viability assay.

SW756 = tested on: SW756;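 note: growth inhibition of human SW756 cells, read out with a cell viability assay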
Description: SANGER: Inhibition of human SW756 cell growth in a cell viability assay.

HLE = tested on: HLE;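 note: growth inhibition of human HLE cells, read out by a cell viability assay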
Description: SANGER: Inhibition of human HLE cell growth in a cell viability assay.

NCI-H1623 = tested on: NCI-H1623;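 note: cell viability assay used as the read-out for growth inhibition of NCI-H1623 cells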
Description: SANGER: Inhibition of human NCI-H1623 cell growth in a cell viability assay.

CAL-120 = tested on: CAL-120;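 note: cell growth inhibition, read out as cell viability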
Description: SANGER: Inhibition of human CAL-120 cell growth in a cell viability assay.

NCI-H292 = tested on: NCI-H292;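 note: growth inhibition of NCI-H292 cells, read out with a cell viability assay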
Description: SANGER: Inhibition of human NCI-H292 cell growth in a cell viability assay.

SNU-449 = tested on: SNU-449
Description: SANGER: Inhibition of human SNU-449 cell growth in a cell viability assay.

CAL-39 = tested on: CAL-39;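 note: cell viability assay measuring growth inhibition of CAL-39 cells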
Description: SANGER: Inhibition of human CAL-39 cell growth in a cell viability assay.

CAL-72 = tested on: CAL-72;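 note: cell viability assay measuring inhibition of proliferation in the CAL-72 cell line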
Description: SANGER: Inhibition of human CAL-72 cell growth in a cell viability assay.

MG-63 = tested on: MG-63;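 note: growth inhibition of human MG-63 cells, read out with a cell viability assay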
Description: SANGER: Inhibition of human MG-63 cell growth in a cell viability assay.

U-118-MG = tested on: U-118-MG
Description: SANGER: Inhibition of human U-118-MG cell growth in a cell viability assay.

MDA-MB-453 = tested on: MDA-MB-453
Description: SANGER: Inhibition of human MDA-MB-453 cell growth in a cell viability assay.

C[C@]12O[C@H](C[C@]1(O)CO)n1c3ccccc3c3c4c(c5c6ccccc6n2c5c31)CNC4=O [LESTAURTINIB]
IC50 (KYSE-150 cell line): 0.651 µM | IC50 (RCM-1): 1.59 µM | IC50 (SKG-IIIa): 0.255 µM | IC50 (NB17): 0.382 µM | IC50 (SCC-9): 1.21 µM | IC50 (HCT-15): 0.566 µM | IC50 (BT-20): 1.65 µM | IC50 (NCI-H1651): > 2 µM | IC50 (CAPAN-1): > 2 µM | IC50 (SW48): 0.0716 µM | IC50 (D-247MG): 0.528 µM | IC50 (HMV-2 cell line): 0.0558 µM | IC50 (SW13): 0.617 µM | IC50 (T98G): 0.327 µM | IC50 (KYSE-510): > 2 µM | IC50 (NCI-H1693): > 2 µM | IC50 (G-361): 0.221 µM | IC50 (NCI-H2122): 1.92 µM | IC50 (A673): 0.718 µM | IC50 (BXPC-3): > 2 µM | IC50 (HCC70): > 2 µM | IC50 (NCI-H2052): 0.488 µM | IC50 (EFO-21): > 2 µM | IC50 (PFSK-1): > 2 µM | IC50 (NUGC-3): > 2 µM | IC50 (WM-115): > 2 µM | IC50 (BHT-101): 0.464 µM | IC50 (SW837): > 2 µM | IC50 (HSC-4): 0.203 µM | IC50 (DoTc2-4510): > 2 µM | IC50 (HuO-3N1): 0.605 µM | IC50 (SF-295): 0.428 µM | IC50 (NCI-H2170): > 2 µM | IC50 (EFO-27): 1.03 µM | IC50 (MFE-280): > 2 µM | IC50 (OAW-28): > 2 µM | IC50 (NCI-H1703): 0.345 µM | IC50 (NCI-H2452): 1.54 µM | IC50 (NB7): 0.899 µM | IC50 (KYSE-270): 0.392 µM | IC50 (SW756): 0.63 µM | IC50 (HLE): 1.39 µM | IC50 (NCI-H1623): 1.65 µM | IC50 (CAL-120): 0.336 µM | IC50 (NCI-H292): 0.0914 µM | IC50 (SNU-449): > 2 µM | IC50 (CAL-39): 0.481 µM | IC50 (CAL-72): > 2 µM | IC50 (MG-63): 0.445 µM | IC50 (U-118-MG): > 2 µM | IC50 (MDA-MB-453): 1.91 µM

C[C@]1(c2nc3c(C(N)=O)cccc3[nH]2)CCCN1 [VELIPARIB]
IC50 (KYSE-150 cell line): > 5 µM | IC50 (RCM-1): > 5 µM | IC50 (SKG-IIIa): > 5 µM | IC50 (NB17): > 5 µM | IC50 (SCC-9): > 5 µM | IC50 (HCT-15): > 5 µM | IC50 (BT-20): > 5 µM | IC50 (NCI-H1651): > 5 µM | IC50 (CAPAN-1): > 5 µM | IC50 (SW48): > 5 µM | IC50 (D-247MG): > 5 µM | IC50 (HMV-2 cell line): > 5 µM | IC50 (SW13): > 5 µM | IC50 (T98G): > 5 µM | IC50 (KYSE-510): > 5 µM | IC50 (NCI-H1693): > 5 µM | IC50 (G-361): > 5 µM | IC50 (NCI-H2122): > 5 µM | IC50 (A673): > 5 µM | IC50 (BXPC-3): > 5 µM | IC50 (HCC70): > 5 µM | IC50 (NCI-H2052): > 5 µM | IC50 (EFO-21): > 5 µM | IC50 (PFSK-1): > 5 µM | IC50 (NUGC-3): > 5 µM | IC50 (WM-115): > 5 µM | IC50 (BHT-101): > 5 µM | IC50 (SW837): > 5 µM | IC50 (HSC-4): > 5 µM | IC50 (DoTc2-4510): > 5 µM | IC50 (HuO-3N1): > 5 µM | IC50 (SF-295): > 5 µM | IC50 (NCI-H2170): > 5 µM | IC50 (EFO-27): > 5 µM | IC50 (MFE-280): > 5 µM | IC50 (OAW-28): > 5 µM | IC50 (NCI-H1703): > 5 µM | IC50 (NCI-H2452): > 5 µM | IC50 (NB7): > 5 µM | IC50 (KYSE-270): > 5 µM | IC50 (SW756): > 5 µM | IC50 (HLE): > 5 µM | IC50 (NCI-H1623): > 5 µM | IC50 (CAL-120): > 5 µM | IC50 (NCI-H292): > 5 µM | IC50 (SNU-449): > 5 µM | IC50 (CAL-39): > 5 µM | IC50 (CAL-72): > 5 µM | IC50 (MG-63): > 5 µM | IC50 (U-118-MG): > 5 µM | IC50 (MDA-MB-453): > 5 µM
